Assay results published in patent publication US11840686B2, “Modulation of prekallikrein (PKK) expression” (Ionis Pharmaceuticals, Inc., priority 2013, dated 2023).
Strand notation (5' to 3'): a small letter for the sugar, then the base; units joined by * are phosphorothioate-linked, units joined directly phosphodiester-linked; [ ] holds rarer units or linkages, { } end groups; capitals alone tell only the bases. e = 2'-O-(2-methoxyethyl) (MOE); k = constrained ethyl (cEt); [5mC] = 5-methylcytosine; d = 2'-deoxy (DNA)

Tested on: human PKK mRNA
Assay: Antisense inhibition of human PKK mRNA in HepaRG cells, 1,000 nM, MOE/deoxy/cEt oligonucleotides (Example 3)
Type: cell-based
In short: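 HepaRG cells at 20,000 per well electroporated with 1,000 nM 16-mer MOE/cEt/deoxy gapmers (phosphorothioate, 5-methylcytosine). After about 24 h, PKK mRNA measured by qRT-PCR with primer probe set RTS3454, normalized to RIBOGREEN total RNA. Reported as percent inhibition versus untreated cells.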

[1] = Table 19, HepaRG cells, electroporation with 1,000 nM antisense oligonucleotide, approximately 24 hours, PKK mRNA by RT-PCR (RTS3454), relative to untreated control cells
[2] = Table 22 experiment, HepaRG cells, electroporation with 1,000 nM antisense oligonucleotide, approx. 24 hours, PKK mRNA by RT-PCR (RTS3454), relative to untreated control cells
[3] = HepaRG cells, electroporation with 1,000 nM antisense oligonucleotide, approximately 24 hours, primer probe set RTS3454, relative to untreated control cells, experiment of Table 23
[4] = PKK mRNA, HepaRG cells, 1,000 nM antisense oligonucleotide, Table 31
[5] = Table 20, HepaRG cells, electroporation with 1,000 nM antisense oligonucleotide, approximately 24 hours, PKK mRNA by RT-PCR (RTS3454), relative to untreated control cells
[6] = Table 27, HepaRG cells, 1,000 nM antisense oligonucleotide, human PKK mRNA
[7] = HepaRG cells, electroporation with 1,000 nM antisense oligonucleotide, approximately 24 hours, primer probe set RTS3454, relative to untreated control cells, experiment of Table 24
[8] = Table 21 experiment, HepaRG cells, electroporation with 1,000 nM antisense oligonucleotide, approx. 24 hours, PKK mRNA by RT-PCR (RTS3454), relative to untreated control cells
[9] = HepaRG cells, electroporation with 1,000 nM antisense oligonucleotide, approx. 24 hours, PKK mRNA by RT-PCR (RTS3454), relative to untreated control cells, Table 25 experiment

## 548089 (antisense eA*eA*kA*d[5mC]*dT*dA*dA*dG*dG*dG*dA*d[5mC]*d[5mC]*kA*k[5mC]*e[5mC]) [compound 548089]
[1]
  % inhibition: 34%

## 547895 (eA*eG*kG*d[5mC]*dA*dA*dT*dT*dG*dT*dT*d[5mC]*d[5mC]*kG*kG*eT; antisense) [compound 547895]
[2]
  % inhibition: 94%

## 547954 (eT*eA*kA*dA*dA*dG*dG*d[5mC]*dT*dA*dT*dA*dT*k[5mC]*k[5mC]*eA; antisense) [compound 547954]
[3]
  % inhibition: 36%

## 548673 (antisense eG*eA*k[5mC]*d[5mC]*dT*dT*dG*d[5mC]*dT*dT*d[5mC]*d[5mC]*dA*kT*kG*eT) [compound 548673]
[4]
  % inhibition: 40%

## 548104 (antisense eA*eT*kG*dT*dA*d[5mC]*dT*d[5mC]*dA*dG*d[5mC]*dG*dA*k[5mC]*kT*eT) [compound 548104]
[1]
  % inhibition: 59%

## 547916 (e[5mC]*e[5mC]*kT*dG*dG*d[5mC]*dA*dA*d[5mC]*dA*dT*d[5mC]*d[5mC]*kA*k[5mC]*eA; antisense) [compound 547916]
[5]
  % inhibition: 70%
[2]
  % inhibition: 56%

## 548374 (eG*e[5mC]*kA*d[5mC]*d[5mC]*d[5mC]*dT*dT*dT*dT*d[5mC]*dA*dT*kT*kG*eA; antisense) [compound 548374]
[6]
  % inhibition: 41%

## 548689 (DNA e[5mC]*e[5mC]*kA*dG*dG*dT*dG*d[5mC]*dA*dG*d[5mC]*dA*d[5mC]*kG*kG*eA) [compound 548689]
[4]
  % inhibition: 12%

## 548616 (antisense eA*eT*kT*dG*dG*dT*dG*dG*d[5mC]*dG*dG*dG*dA*kT*k[5mC]*eG) [compound 548616]
[4]
  % inhibition: 35%

## 548549 (antisense eT*eG*kT*dG*d[5mC]*dA*dA*dT*d[5mC]*dA*dG*dG*dT*kG*kG*eA) [compound 548549]
HepaRG cells, 1,000 nM antisense oligonucleotide, Table 29
  % inhibition: 56%

## 548042 (eT*eT*kT*dG*dT*dG*dA*dG*dA*dA*dA*dG*dG*kT*kG*eT; antisense) [compound 548042]
[7]
  % inhibition: 63%

## 547981 (antisense eT*e[5mC]*kT*dT*dT*dG*dT*dG*d[5mC]*dA*dA*dG*dT*k[5mC]*kT*e[5mC]) [compound 547981]
[3]
  % inhibition: 76%

## 548073 (e[5mC]*eT*kT*dT*d[5mC]*dT*d[5mC]*d[5mC]*dT*dT*d[5mC]*dG*dA*kG*kA*eA; antisense) [compound 548073]
[7]
  % inhibition: 24%

## 548080 (e[5mC]*e[5mC]*k[5mC]*dT*dT*d[5mC]*dT*dT*dT*dA*dT*dA*dG*k[5mC]*k[5mC]*eA; antisense) [compound 548080]
[1]
  % inhibition: 0%

## 548497 (antisense e[5mC]*e[5mC]*kT*dT*d[5mC]*dA*dT*dA*d[5mC]*d[5mC]*d[5mC]*d[5mC]*dT*k[5mC]*kA*e[5mC]) [compound 548497]
Table 28, HepaRG cells, 1,000 nM antisense oligonucleotide, human PKK mRNA
  % inhibition: 26%

## 548637 (antisense eG*e[5mC]*kT*dG*dA*dT*d[5mC]*dT*dT*d[5mC]*dT*dA*dA*kT*kG*e[5mC]) [compound 548637]
[4]
  % inhibition: 38%

## 547831 (e[5mC]*eT*kG*d[5mC]*dA*d[5mC]*d[5mC]*dT*dG*dT*dT*d[5mC]*dG*kA*kT*eG; antisense) [compound 547831]
[8]
  % inhibition: 49%

## 548153 (eT*eG*k[5mC]*dT*dG*dA*dA*dA*dG*d[5mC]*dG*dG*dG*k[5mC]*kT*eT; antisense) [compound 548153]
[9]
  % inhibition: 44%

## 548383 (eG*eT*k[5mC]*dT*d[5mC]*dG*dA*dT*dG*dG*d[5mC]*dA*dA*kG*k[5mC]*eT; antisense) [compound 548383]
Table 30, human PKK mRNA, HepaRG cells, 1,000 nM antisense oligonucleotide
  % inhibition: 49%

## 548350 (antisense eG*e[5mC]*kG*d[5mC]*dT*dA*dA*d[5mC]*d[5mC]*dT*d[5mC]*dA*dT*kA*kA*eA) [compound 548350]
[6]
  % inhibition: 29%

## 548340 (antisense eG*eA*kT*dG*dA*dT*d[5mC]*d[5mC]*dT*d[5mC]*dA*d[5mC]*dA*kT*kA*e[5mC]) [compound 548340]
[6]
  % inhibition: 35%

## 548108 (antisense eG*eA*kG*d[5mC]*dT*dT*dT*dT*d[5mC]*d[5mC]*dA*dT*d[5mC]*kA*k[5mC]*eT) [compound 548108]
[1]
  % inhibition: 61%

## 548656 (antisense eT*eT*kA*d[5mC]*dA*dA*d[5mC]*dA*dG*dA*d[5mC]*d[5mC]*d[5mC]*kA*kG*eG) [compound 548656]
[4]
  % inhibition: 35%

## 548098 (antisense eA*eG*kA*d[5mC]*dA*d[5mC]*d[5mC]*dA*dG*dG*dT*dT*dG*k[5mC]*kT*e[5mC]) [compound 548098]
[1]
  % inhibition: 0%

## 547823 (eA*eG*k[5mC]*dA*dA*d[5mC]*d[5mC]*dA*dA*dA*d[5mC]*d[5mC]*dT*kT*kT*eT; antisense) [compound 547823]
[8]
  % inhibition: 51%

## 548238 (eA*e[5mC]*kT*d[5mC]*dG*d[5mC]*d[5mC]*dT*dT*dT*dG*dT*dG*kA*k[5mC]*eT; antisense) [compound 548238]
HepaRG cells, electroporation with 1,000 nM antisense oligonucleotide, approx. 24 hours, PKK mRNA by RT-PCR (RTS3454), relative to untreated control cells, Table 26 experiment
  % inhibition: 31%

## 548321 (e[5mC]*eT*kG*d[5mC]*dA*dT*d[5mC]*dT*dG*dG*dA*d[5mC]*dT*kA*kT*eG; antisense) [compound 548321]
[6]
  % inhibition: 38%

## 547767 (antisense eT*eG*kG*dA*dG*dG*dT*dG*dA*dG*dT*d[5mC]*dT*k[5mC]*kT*eT) [compound 547767]
[8]
  % inhibition: 74%

## 547847 (antisense e[5mC]*eT*k[5mC]*dG*dA*dT*dG*dG*d[5mC]*dA*dA*dG*d[5mC]*kA*k[5mC]*eT) [compound 547847]
[5]
  % inhibition: 46%
[2]
  % inhibition: 72%

## 548118 (antisense eT*e[5mC]*kT*d[5mC]*dA*dT*dG*d[5mC]*dT*dG*dG*dT*dG*kA*k[5mC]*eT) [compound 548118]
[1]
  % inhibition: 47%

## 547876 (antisense eA*e[5mC]*kA*d[5mC]*dT*dG*d[5mC]*dT*dA*dA*d[5mC]*d[5mC]*dT*kT*kA*eG) [compound 547876]
[5]
  % inhibition: 78%
[2]
  % inhibition: 59%

## 548150 (e[5mC]*eA*kG*dA*d[5mC]*dA*dT*dT*dG*dT*d[5mC]*d[5mC]*dT*k[5mC]*kA*eG; antisense) [compound 548150]
[1]
  % inhibition: 60%

## 548175 (eA*eT*k[5mC]*dT*d[5mC]*dA*dG*dT*dT*dG*d[5mC]*dG*dA*k[5mC]*k[5mC]*eT; antisense) [compound 548175]
[9]
  % inhibition: 0%

## 548092 (antisense eT*eT*kG*d[5mC]*dA*dA*dA*d[5mC]*dT*dA*dA*dG*dG*kG*kA*e[5mC]) [compound 548092]
[1]
  % inhibition: 30%

## 548035 (e[5mC]*eA*k[5mC]*dT*dA*dT*dA*dG*dA*dT*dG*d[5mC]*dG*k[5mC]*k[5mC]*eA; antisense) [compound 548035]
[7]
  % inhibition: 44%

## 547800 (eA*e[5mC]*kA*dT*dG*dG*dA*dA*dG*d[5mC]*dT*dA*d[5mC]*kA*kT*e[5mC]; antisense) [compound 547800]
[8]
  % inhibition: 20%

## 547980 (antisense eA*eA*kG*dT*d[5mC]*dT*d[5mC]*dT*dT*dG*dG*d[5mC]*dA*kA*kA*e[5mC]) [compound 547980]
[3]
  % inhibition: 54%

## 548625 (antisense eG*eT*kT*d[5mC]*dT*dA*d[5mC]*dA*d[5mC]*dA*d[5mC]*dA*dG*kT*kA*e[5mC]) [compound 548625]
[4]
  % inhibition: 0%

## 547989 (antisense e[5mC]*eT*kG*dA*d[5mC]*dA*dG*d[5mC]*dG*dA*dA*dT*d[5mC]*kA*kT*e[5mC]) [compound 547989]
[3]
  % inhibition: 66%

## 548336 (antisense eG*e[5mC]*kA*d[5mC]*dA*dT*dT*dA*dG*dG*dA*dG*dG*kT*kA*eG) [compound 548336]
[6]
  % inhibition: 1%
